Experimental data taken from patent publication US11242508B2, “Methods relating to pluripotent cells” (priority 2014, dated 2022).
Where two headings read alike, the source gives them in different places.

Legend:
mature somatic cells = assay: STAP cell generation with low pH solution containing ATP; assay type: cell-based; conditions: low pH solution containing ATP versus pH alone
Experimental: When this solution is used in combination with mechanical trituration of mature cells, the results were even more profound. Consequently, described herein is a protocol which incorporates these findings to increase the efficacy of generating STAP cells.
A1. Make a low pH HBSS solution containing ACT as follows and then set aside for use in step A4. […] The pH of this solution is about 3.0.
Place 5 mL of HBSS (with phenol red) [Life Technologies, 14170-161] into a 15 mL tube. Place a clean pH sensor into the HBSS. Titrate in the ACT stock solution, drop by drop, into the HBSS until the desired pH of, e.g., 5.0 is obtained. Mix the solution regularly to ensure that the measurement is accurate.
A4. […] In some embodiments, a volume of 2-3 ml of the cell suspension in a 50 ml tube can be used.

Muscle somatic cells = assay: Percent of cells demonstrating pluripotent phenotype after stress treatment; assay type: cell-based, mice; conditions: 1 week-old, after 1 week of stress treatment
From the text: (§1) Stress alteration of mature somatic cells procured from various adult tissues. To examine whether ACCs could be generated not only mature lymphocytes but also other types of somatic cells, brain, skin, muscle, fat, bone marrow, lung and liver were harvested from Oct4-GFP (GOF) mice^8. Cells were isolated from the tissue samples, dissociated into single cells, and treated with different physical and or chemical stress conditions. The efficiency of the process to alter the cells differed as a function of both the source of cells and the stress condition(s) to which the cells were exposed (FIG. 7A). The ability of stress to alter mature cells to express Oct4, differed depending on the derivation of cells, but stress was able to alter cells to express Oct4 to some degree in mature cells derived from all three germ layers (FIG. 7A). ACC colonies derived from any mature tissue expressed pluripotent markers, E-cadherin, Nanog, PCAM-1 and AP (data not shown), and ES specific marker genes (FIG. 7B). Significant physical and chemical stresses altered mature somatic cells to revert to a stem cell state, despite of the source of tissues and derivation of the germ layers.
(§2) Exposure to external stimuli-stress treatment. To give a mechanical stress to mature cells, pasture pipette were heated and then stretched to create lumens approximately 50 microns in diameters, and then broken. Mature somatic cells were then triturated through these pipettes for 20 min, and cultured for 7 days. To provide a hypoxic stimulus to mature cells, cells were cultured in a 5% oxygen incubator for 3 weeks. An under nutrition stimulus was provided to mature cells, by culturing the cells in a basic culture medium for 3 weeks. To expose the mature cells to a physiological stress, they were treated with low pH (pH5.5) solution, and cultured for 7 days. Also, cells were given more serious damage. To create pores in mature cell membranes, cells were treated with SLO (Streptolysin O).
(§3) SLO-treated cells were incubated in HBSS containing 10 μg/mL SLO at 37° C. for 50 min and then cultured in culture medium without SLO for 7 days. Cells exposed to under-nutrition stress were cultured in basal medium for 2 to 3 weeks. […] Cells exposed to “Ca” stress were cultured in culture medium containing 2 mM CaCl2) for 2 weeks.
(§4) Fluorescence-Activated Cell Sorting and Flow Cytometry. Cells were prepared according to standard protocols and suspended in 0.1% BSA/PBS on ice prior to FACS. PI (BD Biosciences) was used to exclude dead cells. Cells were sorted on a BD FACSAria SORP and analyzed on a BD LSRII with BD FACSDiva Software (BD Biosciences).

Fat somatic cells = assay: as above; assay type: cell-based, mice; conditions: 1 week-old, after 1 week of stress treatment
From the text: as §1, §2, §3, §4

[1] = test system: Bone Marrow somatic cells; assay: as above; assay type: cell-based, mice; conditions: 1 week-old, after 1 week of stress treatment
From the text: as §1, §2, §3, §4

Fibroblast = assay: as above; assay type: cell-based, mice; conditions: 1 week-old, after 1 week of stress treatment
From the text: as §1, §2, §3, §4

Lung somatic cells = assay: as above; assay type: cell-based, mice; conditions: 1 week-old, after 1 week of stress treatment
From the text: as §1, §2, §3, §4

Brain somatic cells = assay type: cell-based, mice; conditions: 1 week-old, after 1 week of stress treatment
Experimental: Exposure to external stimuli-stress treatment. To give a mechanical stress to mature cells, pasture pipette were heated and then stretched to create lumens approximately 50 microns in diameters, and then broken. Mature somatic cells were then triturated through these pipettes for 20 min, and cultured for 7 days. To provide a hypoxic stimulus to mature cells, cells were cultured in a 5% oxygen incubator for 3 weeks. An under nutrition stimulus was provided to mature cells, by culturing the cells in a basic culture medium for 3 weeks. To expose the mature cells to a physiological stress, they were treated with low pH (pH5.5) solution, and cultured for 7 days. Also, cells were given more serious damage. To create pores in mature cell membranes, cells were treated with SLO (Streptolysin O). […]
Cells were prepared according to standard protocols and suspended in 0.1% BSA/PBS on ice prior to FACS. […] Cells were sorted on a BD FACSAria SORP and analyzed on a BD LSRII with BD FACSDiva Software (BD Biosciences).

NK1-R [2] = assay type: in vivo, rat; conditions: for IC50: read-out: IC50, tactile hyperalgesia
Experimental: (§5) The highly specific cytotoxin SSP-SAP (20 uL, 1 uM) was injected into the intrathecal (i.t.) space of the male rat spinal cord in order to ablate a large majority of the neurokinin-1 receptor (NK1R)-expressing neurons. Two to 3 weeks later the normally robust hyperalgesic responses to injection of capsaicin (10 uL, 0.1%) in the plantar hindpaw, consisting of mechanical hyperalgesia to stimulation by von Frey filaments and thermal hyperalgesia appearing as a shortening of the latency of withdrawal to a radiant heat source, were almost absent. […] It thus appears that STAP stem cells can restore normal function after specific spinal neuronal loss and present a model for a therapeutic approach to spinal cord injury.
(§6) Adult male S-D rats were first handled for 4-5 days to familiarize them with the test arena, to minimize stress-induced analgesia, and to obtain Naïve and initial Baseline behavioral data. Tactile responsiveness was determined by probing the plantar surface of one hindpaw with a 15 g von Frey filament (VFH), 10 times every 3 secs. Baseline sensitivity, with no treatments and no capsaicin equaled ˜1-2 paw withdrawals per 10 probes. Thermal sensitivity was indicated by the latency for paw withdrawal from a radiant heat source (Hargreaves method: cutoff time set at 18 sec.). Baseline latency ˜16 sec. Before any intrathecal injections, the Naïve rats' responses to capsaicin injection into the hindpaw were determined to be: Tactile: 6 withdrawals/10 VFH probes, and Thermal: 6 sec latency.

NK1-R [3] = assay type: in vivo, rat
Experimental: as §5, §6

NK1-R [4] = biological target: T1, NK1-R (Rattus norvegicus, UniProt P14600); assay type: in vivo; conditions: naïve rats (and rats that received Blank-SAP followed by stem cells, not shown); 30 uL i.t. injection; read-out: IC50, thermal hyperalgesia
T1 construct: from tissue; host or cells: spinal cord of living adult male Sprague-Dawley rats (in vivo, intrathecal dosing)
T1 sequence (P14600 whole entry): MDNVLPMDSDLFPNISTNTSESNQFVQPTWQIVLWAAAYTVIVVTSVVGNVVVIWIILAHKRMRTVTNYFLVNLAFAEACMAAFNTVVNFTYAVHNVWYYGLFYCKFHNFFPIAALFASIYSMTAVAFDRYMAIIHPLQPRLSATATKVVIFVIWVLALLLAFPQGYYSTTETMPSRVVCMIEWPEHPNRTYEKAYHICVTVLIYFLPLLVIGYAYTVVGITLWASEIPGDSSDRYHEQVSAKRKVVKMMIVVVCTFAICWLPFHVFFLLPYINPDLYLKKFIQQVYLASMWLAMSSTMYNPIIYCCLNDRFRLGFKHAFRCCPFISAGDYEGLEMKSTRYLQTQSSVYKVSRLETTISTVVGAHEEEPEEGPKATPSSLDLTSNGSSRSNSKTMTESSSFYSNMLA
Experimental: as §5, §6

NK-1R = assay type: in vivo, rat
Experimental: as §5
as §6, with “Thermal sensitivity was indicated by the latency for paw withdrawal from a radiant heat source (Hargreaves method: cutoff time set at 18 sec.). Baseline latency ˜16 sec.” left out, “latency. […]” for “latency.”

Row | Compound | Percent of cells demonstrating pluripotent phenotype (Muscle somatic cells) [%] | Percent of cells demonstrating pluripotent phenotype (Fat somatic cells) [%] | Percent of cells demonstrating pluripotent phenotype [1] [%] | Percent of cells demonstrating pluripotent phenotype (Fibroblast) [%] | Percent of cells demonstrating pluripotent phenotype (Lung somatic cells) [%] | Percent of cells demonstrating pluripotent phenotype (Brain somatic cells) [%] | also measured
1 | Nc1ncnc2c1ncn2[C@@H]1O[C@H](COP(=O)([O-])OP(=O)([O-])OP(=O)(O)O)[C@@H](O)[C@H]1O.O.[Na+].[Na+] [ATP, Adenosine 5′ Triphosphate Disodium Salt Hydrate] | 68.4 | 79.6 | 12.3 | 25.10 | 9.8 | – | Efficacy of conversion to STAP cells (mature somatic cells): dramatically increased the efficacy of this conversion
2 | [Ca+2].[Cl-].[Cl-] [Ca, CaCl2] | 1.5 | 2.7 | 1.2 | 3.5 | 1.3 | 0.8 | –
3 | FC(F)(F)c1cc(CO[C@H]2CCCN[C@H]2c2ccccc2)cc(C(F)(F)F)c1 [L-733,060] | – | – | – | – | – | – | IC50 (NK1-R [2]; naïve rats (and rats that received Blank-SAP followed by stem cells, not shown), 30 uL i.t. injection): ~300 µM; IC50 (NK1-R [2]; stem cell-restored rats, i.t. injection): ~30 µM; IC50 (NK1-R [3]; stem cell-restored rats, i.t. injection, read-out: IC50, thermal hyperalgesia): ~5 µM; IC50 (NK1-R [4]): ~300 µM; Enhancement of potency for inhibition of capsaicin hyperalgesia (NK-1R; STAP stem cell restored rats over Naïve rats or rats that received Blank-SAP): 10-60 times; Inhibition of the restored hyperalgesic response (NK-1R; STAP stem cell-restored rats, i.t. injection at 300 uM): fully inhibited
4 | COc1cc(CNC(=O)CCCC/C=C/C(C)C)ccc1O [capsaicin] | – | – | – | – | – | – | Tactile response to capsaicin injection into the hindpaw (NK1-R [2]; Naïve rats, before any intrathecal injections, 15 g von Frey filament): 6 withdrawals/10 VFH probes; Thermal response to capsaicin injection into the hindpaw, latency (NK1-R [3]; Naïve rats, before any intrathecal injections, radiant heat, cutoff 18 sec): 6 s
5 | streptolysin O [SLO] | 20.5 | 32.8 | 13.2 | 15.2 | 18.4 | 10.3 | –
